Source: patent US10906915B2, “Substituted pyrazoloazepin-4-ones and their use as phosphodiesterase inhibitors” (LEO Pharma A/S, priority 2016, dated 2021)

Biological target: human PDE4D catalytic domain (UniProt no. Q08499) (Homo sapiens (Human), UniProt Q08499)
Experiment: PDE4 assay (TR-FRET, FAM-cAMP cleavage)
Type: biochemical
Settings: human PDE4D catalytic domain; molar concentration giving 50% inhibition of substrate cleavage; read-out: PDE4 IC50 range
Procedure, shortened: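 PDE4D catalytic domain ([…]) was incubated with unlabelled cAMP plus FAM-cAMP and titrated compound, stopped with binding buffer of metal-ion nanoparticles and Tb donor. AMP generation read by TR-FRET; IC50 as 50% inhibition of cleavage versus controls, reported as nM ranges.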

Sequence of human PDE4D catalytic domain (Q08499 380-740 limits assumed): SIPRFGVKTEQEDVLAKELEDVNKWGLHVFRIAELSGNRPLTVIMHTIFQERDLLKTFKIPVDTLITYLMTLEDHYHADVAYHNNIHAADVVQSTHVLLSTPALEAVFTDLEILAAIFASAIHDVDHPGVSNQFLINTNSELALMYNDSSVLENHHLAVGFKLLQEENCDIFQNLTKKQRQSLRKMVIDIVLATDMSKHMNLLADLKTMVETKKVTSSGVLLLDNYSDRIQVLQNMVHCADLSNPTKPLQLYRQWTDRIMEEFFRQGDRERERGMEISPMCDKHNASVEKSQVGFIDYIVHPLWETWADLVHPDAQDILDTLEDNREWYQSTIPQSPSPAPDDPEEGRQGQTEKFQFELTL

Compound	IC50 [nM]
CCc1nn(C[C@@H](C)COC(=O)c2cccc(C#N)c2)c2c1C(=O)NCC1(CCOCC1)C2 [Example 167, [(2R)-3-(3-ethyl-4-oxo-spiro[6,8-dihydro-5H-pyrazolo[4,3-c]azepine-7,4′-tetrahydropyran]-1-yl)-2-methyl-propyl] 3-cyanobenzoate]	< 100
CCc1nn(C[C@@H](C)COC(=O)c2ccc(C#N)cc2)c2c1C(=O)NCC1(CCOCC1)C2 [Example 168, [(2R)-3-(3-ethyl-4-oxo-spiro[6,8-dihydro-5H-pyrazolo[4,3-c]azepine-7,4′-tetrahydropyran]-1-yl)-2-methyl-propyl] 4-cyanobenzoate]	< 100
CCc1nn(C[C@@H](C)COC(=O)c2ccc(C)c(C)c2)c2c1C(=O)NCC1(CCOCC1)C2 [Example 169, [(2R)-3-(3-ethyl-4-oxo-spiro[6,8-dihydro-5H-pyrazolo[4,3-c]azepine-7,4′-tetrahydropyran]-1-yl)-2-methyl-propyl] 3,4-dimethylbenzoate]	< 100
CCc1nn(C[C@@H](C)COC(=O)c2ccc(C)cc2C)c2c1C(=O)NCC1(CCOCC1)C2 [Example 170, [(2R)-3-(3-ethyl-4-oxo-spiro[6,8-dihydro-5H-pyrazolo[4,3-c]azepine-7,4′-tetrahydropyran]-1-yl)-2-methyl-propyl] 2,4-dimethylbenzoate]	< 100
CCc1nn(C[C@@H](C)COC(=O)c2cccc(OC)c2)c2c1C(=O)NCC1(CCOCC1)C2 [Example 171, [(2R)-3-(3-ethyl-4-oxo-spiro[6,8-dihydro-5H-pyrazolo[4,3-c]azepine-7,4′-tetrahydropyran]-1-yl)-2-methyl-propyl] 3-methoxybenzoate]	< 100
CCc1nn(C[C@@H](C)COC(=O)c2ccc(C)cc2F)c2c1C(=O)NCC1(CCOCC1)C2 [Example 172, [(2R)-3-(3-ethyl-4-oxo-spiro[6,8-dihydro-5H-pyrazolo[4,3-c]azepine-7,4′-tetrahydropyran]-1-yl)-2-methyl-propyl] 2-fluoro-4-methyl-benzoate]	< 100
CCc1nn(C[C@@H](C)COC(=O)c2cc(F)ccc2C)c2c1C(=O)NCC1(CCOCC1)C2 [Example 173, [(2R)-3-(3-ethyl-4-oxo-spiro[6,8-dihydro-5H-pyrazolo[4,3-c]azepine-7,4′-tetrahydropyran]-1-yl)-2-methyl-propyl] 5-fluoro-2-methyl-benzoate]	< 100
CCc1nn(C[C@@H](C)COC(=O)c2c(C)cccc2F)c2c1C(=O)NCC1(CCOCC1)C2 [Example 174, [(2R)-3-(3-ethyl-4-oxo-spiro[6,8-dihydro-5H-pyrazolo[4,3-c]azepine-7,4′-tetrahydropyran]-1-yl)-2-methyl-propyl] 2-fluoro-6-methyl-benzoate]	< 100
CCc1nn(C[C@@H](C)COC(=O)c2ccc(Cl)cc2)c2c1C(=O)NCC1(CCOCC1)C2 [Example 175, [(2R)-3-(3-ethyl-4-oxo-spiro[6,8-dihydro-5H-pyrazolo[4,3-c]azepine-7,4′-tetrahydropyran]-1-yl)-2-methyl-propyl] 4-chlorobenzoate]	< 100
CCc1nn(C[C@@H](C)COC(=O)c2c(F)cccc2F)c2c1C(=O)NCC1(CCOCC1)C2 [Example 176, [(2R)-3-(3-ethyl-4-oxo-spiro[6,8-dihydro-5H-pyrazolo[4,3-c]azepine-7,4′-tetrahydropyran]-1-yl)-2-methyl-propyl] 2,6-difluorobenzoate]	< 100
CCc1nn(C[C@@H](C)COC(=O)c2cc(F)ccc2F)c2c1C(=O)NCC1(CCOCC1)C2 [Example 177, [(2R)-3-(3-ethyl-4-oxo-spiro[6,8-dihydro-5H-pyrazolo[4,3-c]azepine-7,4′-tetrahydropyran]-1-yl)-2-methyl-propyl] 2,5-difluorobenzoate]	< 100
CCc1nn(C[C@@H](C)COC(=O)c2ccc(F)c(F)c2)c2c1C(=O)NCC1(CCOCC1)C2 [Example 178, [(2R)-3-(3-ethyl-4-oxo-spiro[6,8-dihydro-5H-pyrazolo[4,3-c]azepine-7,4′-tetrahydropyran]-1-yl)-2-methyl-propyl] 3,4-difluorobenzoate]	< 100
